Assay results taken from patent publication US6930203B2, “Gelling agents or thickeners” (Applied NanoSystems B.V., priority 2001, dated 2005).

assay: Cold gelation: addition of a solution of the gelling agent (10% in NMP, 0.05 ml) to an organic solution (0.5 ml); format: physicochemical; set-up: key: g = gelation; s = soluble; p = precipitates; c = crystallizes; ns = not soluble; v = viscous; g* = unstable gel, precipitates; cg = crystalline gel; details: 0.05 ml added to 0.5 ml 1,2-dichloroethane
Description: (§1) Preferred examples include aromatic and nonaromatic hydrocarbons, alcohols, ethers, esters, aldehydes, alkanoic acids, epoxides, amines, halogenated hydrocarbons, silicon oils, vegetable oils, phosphoric esters, sulfoxides, water and mixtures thereof. In order to obtain a gel, the gelling agent or thickener is preferably mixed with the composition to be transformed to a gel in an amount of between 0.01 and 50 wt. %, based on the weight of the composition. In a preferred embodiment, the mixture of the gelling agent or thickener and the composition is heated to allow for an even better gel formation or thickening. Typically, the heating will involve raising the temperature of the mixture to about 30-175° C. until a clear solution is obtained. In an alternative embodiment, the gelling agent is first dissolved in a polar or apolar solvent and then added to or sprayed into a composition or solvent to be converted into a gel.
Addition of a solution of the gelling agent (10% in NMP, 0.05 ml) to an organic solution (0.5 ml, “cold gelation”)

| Compound | Cold gelation in 1,2-dichloroethane |
| --- | --- |
| O=C(NC1CCCCC1)[C@@H](O)[C@@H](O)[C@H](O)[C@@H](O)C(=O)NC1CCCCC1 [Example 5, dicyclohexyl D-glucaramide] | c |
| di-8-pentadecyl D-glucaramide [Example 18] | s |

same assay, conditions: 0.05 ml added to 0.5 ml Toluene

| Compound | Cold gelation in Toluene |
| --- | --- |
| O=C(NC1CCCCC1)[C@@H](O)[C@@H](O)[C@H](O)[C@@H](O)C(=O)NC1CCCCC1 [Example 5, dicyclohexyl D-glucaramide] | c |
| di-8-pentadecyl D-glucaramide [Example 18] | s |

same assay, conditions: 0.05 ml added to 0.5 ml cyclohexane

| Compound | Cold gelation in cyclohexane |
| --- | --- |
| O=C(NC1CCCCC1)[C@@H](O)[C@@H](O)[C@H](O)[C@@H](O)C(=O)NC1CCCCC1 [Example 5, dicyclohexyl D-glucaramide] | p |
| di-8-pentadecyl D-glucaramide [Example 18] | s |

same assay, conditions: 0.05 ml added to 0.5 ml methyl laurate

| Compound | Cold gelation in methyl laurate |
| --- | --- |
| O=C(NC1CCCCC1)[C@@H](O)[C@@H](O)[C@H](O)[C@@H](O)C(=O)NC1CCCCC1 [Example 5, dicyclohexyl D-glucaramide] | c |
| di-8-pentadecyl D-glucaramide [Example 18] | s |

same assay, conditions: 0.05 ml added to 0.5 ml n-butyl acetate

| Compound | Cold gelation in n-butyl acetate |
| --- | --- |
| O=C(NC1CCCCC1)[C@@H](O)[C@@H](O)[C@H](O)[C@@H](O)C(=O)NC1CCCCC1 [Example 5, dicyclohexyl D-glucaramide] | c |
| di-8-pentadecyl D-glucaramide [Example 18] | s |

assay: Maximum gelator concentration; format: physicochemical; details: 1,2-dichloroethane
Description: Maximum gelator concentration of 5 (C6-Glu-C6) and 15 (C12-Glu-C12)

| Compound | Maximum gelator concentration in 1,2-dichloroethane |
| --- | --- |
| O=C(NC1CCCCC1)[C@@H](O)[C@@H](O)[C@H](O)[C@@H](O)C(=O)NC1CCCCC1 [Example 5, dicyclohexyl D-glucaramide] | <5% |

same assay, conditions: Toluene

| Compound | Maximum gelator concentration in Toluene |
| --- | --- |
| O=C(NC1CCCCC1)[C@@H](O)[C@@H](O)[C@H](O)[C@@H](O)C(=O)NC1CCCCC1 [Example 5, dicyclohexyl D-glucaramide] | <2.5% |

same assay, conditions: cyclohexane

| Compound | Maximum gelator concentration in cyclohexane |
| --- | --- |
| O=C(NC1CCCCC1)[C@@H](O)[C@@H](O)[C@H](O)[C@@H](O)C(=O)NC1CCCCC1 [Example 5, dicyclohexyl D-glucaramide] | <5% |

same assay, conditions: methyl laurate

| Compound | Maximum gelator concentration in methyl laurate |
| --- | --- |
| O=C(NC1CCCCC1)[C@@H](O)[C@@H](O)[C@H](O)[C@@H](O)C(=O)NC1CCCCC1 [Example 5, dicyclohexyl D-glucaramide] | <2.5% |

same assay, conditions: n-butylacetate

| Compound | Maximum gelator concentration in n-butylacetate |
| --- | --- |
| O=C(NC1CCCCC1)[C@@H](O)[C@@H](O)[C@H](O)[C@@H](O)C(=O)NC1CCCCC1 [Example 5, dicyclohexyl D-glucaramide] | <2.5% |

same assay, conditions: silicon oil (Dow Corning 702)

| Compound | Maximum gelator concentration in silicon oil (Dow Corning 702) |
| --- | --- |
| O=C(NC1CCCCC1)[C@@H](O)[C@@H](O)[C@H](O)[C@@H](O)C(=O)NC1CCCCC1 [Example 5, dicyclohexyl D-glucaramide] | <2.5% |

assay: Solvent scope of N,N′-dialkylaldaramides (1%) or N,N′-dialkylpentaramides (1%): gelation/solubility behaviour in solvents; format: physicochemical; set-up: key: g = gelation; s = soluble; p = precipitates; c = crystallizes; ns = not soluble; v = viscous; g* = unstable gel, precipitates; cg = crystalline gel; details: 1% gelling agent; 1,2-dichloroethane
Description: It will be understood that the use of the present gelling agents or thickeners to prepare a gel or to thicken a composition is also encompassed by the invention. As is well known, gelling behavior of compounds or compositions is highly unpredictable. […] Preferably, the gelling phenomenon is thermo reversible.
as §1
Solvent scope of N,N′-dialkylaldaramides (1%) or N,N′-dialkylpentaramides (1%) 1-24 refers to the compounds prepared in Examples 1-23)

| Compound | Gelation/solubility behaviour in 1,2-dichloroethane |
| --- | --- |
| O=C(NC1CCCCC1)[C@@H](O)[C@@H](O)[C@H](O)[C@@H](O)C(=O)NC1CCCCC1 [Example 5, dicyclohexyl D-glucaramide] | cg |
| di-8-pentadecyl D-glucaramide [Example 18] | s |

same assay, conditions: 1% gelling agent; 2-methoxyethanol

| Compound | Gelation/solubility behaviour in 2-methoxyethanol |
| --- | --- |
| di-8-pentadecyl D-glucaramide [Example 18] | s |

same assay, conditions: 1% gelling agent; 2-octanol

| Compound | Gelation/solubility behaviour in 2-octanol |
| --- | --- |
| O=C(NC1CCCCC1)[C@@H](O)[C@@H](O)[C@H](O)[C@@H](O)C(=O)NC1CCCCC1 [Example 5, dicyclohexyl D-glucaramide] | cg |
| di-8-pentadecyl D-glucaramide [Example 18] | s |

same assay, conditions: 1% gelling agent; 2-propanol

| Compound | Gelation/solubility behaviour in 2-propanol |
| --- | --- |
| O=C(NC1CCCCC1)[C@@H](O)[C@@H](O)[C@H](O)[C@@H](O)C(=O)NC1CCCCC1 [Example 5, dicyclohexyl D-glucaramide] | cg |
| di-8-pentadecyl D-glucaramide [Example 18] | s |

same assay, conditions: 1% gelling agent; Cyclohexane

| Compound | Gelation/solubility behaviour in Cyclohexane |
| --- | --- |
| di-8-pentadecyl D-glucaramide [Example 18] | s |

same assay, conditions: 1% gelling agent; Dimethylsulfoxide

| Compound | Gelation/solubility behaviour in Dimethylsulfoxide |
| --- | --- |
| O=C(NC1CCCCC1)[C@@H](O)[C@@H](O)[C@H](O)[C@@H](O)C(=O)NC1CCCCC1 [Example 5, dicyclohexyl D-glucaramide] | cg |
| di-8-pentadecyl D-glucaramide [Example 18] | s |

same assay, conditions: 1% gelling agent; Ethanol

| Compound | Gelation/solubility behaviour in Ethanol |
| --- | --- |
| O=C(NC1CCCCC1)[C@@H](O)[C@@H](O)[C@H](O)[C@@H](O)C(=O)NC1CCCCC1 [Example 5, dicyclohexyl D-glucaramide] | cg |
| di-8-pentadecyl D-glucaramide [Example 18] | s |

same assay, conditions: 1% gelling agent; Hexadecane

| Compound | Gelation/solubility behaviour in Hexadecane |
| --- | --- |
| O=C(NC1CCCCC1)[C@@H](O)[C@@H](O)[C@H](O)[C@@H](O)C(=O)NC1CCCCC1 [Example 5, dicyclohexyl D-glucaramide] | ns |
| di-8-pentadecyl D-glucaramide [Example 18] | s |

same assay, conditions: 1% gelling agent; Toluene

| Compound | Gelation/solubility behaviour in Toluene |
| --- | --- |
| di-8-pentadecyl D-glucaramide [Example 18] | s |

same assay, conditions: 1% gelling agent; Water

| Compound | Gelation/solubility behaviour in Water |
| --- | --- |
| O=C(NC1CCCCC1)[C@@H](O)[C@@H](O)[C@H](O)[C@@H](O)C(=O)NC1CCCCC1 [Example 5, dicyclohexyl D-glucaramide] | ns |
| di-8-pentadecyl D-glucaramide [Example 18] | p |

same assay, conditions: 1% gelling agent; methyl benzoic acid

| Compound | Gelation/solubility behaviour in methyl benzoic acid |
| --- | --- |
| di-8-pentadecyl D-glucaramide [Example 18] | s |

same assay, conditions: 1% gelling agent; methyl laurate

| Compound | Gelation/solubility behaviour in methyl laurate |
| --- | --- |
| di-8-pentadecyl D-glucaramide [Example 18] | s |

same assay, conditions: 1% gelling agent; n-butylacetate

| Compound | Gelation/solubility behaviour in n-butylacetate |
| --- | --- |
| di-8-pentadecyl D-glucaramide [Example 18] | s |

same assay, conditions: 1% gelling agent; p-xylene

| Compound | Gelation/solubility behaviour in p-xylene |
| --- | --- |
| di-8-pentadecyl D-glucaramide [Example 18] | s |

same assay, conditions: 1% gelling agent; silicon oil

| Compound | Gelation/solubility behaviour in silicon oil |
| --- | --- |
| di-8-pentadecyl D-glucaramide [Example 18] | s |
